According to patent publication US20250114456A1, “ENHANCED IMMUNOTHERAPEUTIC METHOD COMPRISING COMBINED ADMINISTRATION OF PHOTODYNAMIC / RADIOTHERAPEUTIC COMPOUNDS AND IMMUNOTHERAPEUTIC AGENTS” (Theralase Technologies, Inc., priority 2023, published 2025):

Key:
[1] = system: VISTA and PDL1/L2; conditions: multiple preclinical models; cited from earlier work
[2] = system: CD47 expression in A549 human Non-Small Cell Lung Cancer cells; assay: CD47 expression by flow cytometry, A549 cells, with or without radiation; format: cell-based; conditions: 4 hours, overnight incubation, FIG. 6
Protocol: A549 human Non-Small Cell Lung Cancer (“NSCLC”) cells were treated with RUVIDAR or RUTHERRIN for four (4) hours, then cells were treated with radiation or left untreated and then incubated further overnight before cell collection and analysis of CD47 expression by flow cytometry.

[3] = system: A549 human NSCLC cells; assay: ATP secretion quantification in supernatant, A549 cells, with radiation; format: cell-based; conditions: 4 hours, combined with radiation, supernatant 1 hour after, FIG. 8
Protocol: A549 human NSCLC cells were treated with RUVIDAR or RUTHERRIN for four (4) hours, then cells were treated with radiation or left untreated, and then incubated further for one (1) hour before collection of supernatant for ATP secretion quantification.

Row | Compound | anti-tumor activity [1] | CD47 expression ([2]; radiation treatment added) | CD47 expression ([2]; without radiation treatment) | ATP release [3]
1 | C[C@@H](O)[C@H](NC(=O)N[C@@H](CC(N)=O)c1nc([C@H](N)CO)no1)C(=O)O [CA-170] | demonstrated anti-tumor activity in multiple preclinical models | – | – | –
2 | Cc1ccnc(-c2cc(C)ccn2)c1.Cc1ccnc(-c2cc(C)ccn2)c1.[Cl-].[Cl-].[Ru+2].c1csc(-c2ccc(-c3ccc(-c4nc5c6cccnc6c6ncccc6c5[nH]4)s3)s2)c1 [RUVIDAR, Ru(4,4′-dimethyl-2,2′-bipyridine)2(2-(2′,2″:5″,2′-terthiophene)-imidazo[4,5-f][1,10]phenanthroline) chloride] | – | significantly reduced expression | downregulated CD47 expression | significantly increased ATP release
